Source: PubChem BioAssay AID1963978 (Molecular Pharmacology Branch, DTP, NCI, 2024)

Test system: 616215-338-R-J1-PDC spheroids with HUVEC/MSC, viability
Assay: Anticancer human tumor 616215-338-R-J1-PDC patient-derived colon adenocarcinoma cell line growth inhibition [PI3K]
Conditions: for IC50: curve of first compound; for viability, T/C: stronger effect = lower value
Method in brief: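 High-throughput combination screen: PI3K inhibitors crossed with targeted small molecules on complex spheroids of tumor cells, HUVEC and MSCs at 37 degrees C, 5% CO2. Top concentration was at or near clinical Cmax (otherwise 10 microM), with half-log decrements.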
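Also: spheroids exposed to agents for seven days before the viability read.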

Cn1cnc2c(F)c(Nc3ccc(Br)cc3Cl)c(C(=O)NOCCO)cc21 + COc1c(OCCCN2CCOCC2)ccc2c3n(c(=NC(=O)c4cnc(N)nc4)nc12)CCN3
IC50 (second compound 0.00316 µM): 2230 nM
IC50 (second compound 0.01 µM): 1350 nM
IC50 (second compound 0.0316 µM): 810 nM
IC50 (second compound 0.1 µM): 413 nM
IC50 (second compound 0.316 µM): < 9.49 nM
IC50 (second compound 1 µM): < 9.49 nM
viability, T/C (second compound 0.00316 µM, first compound 0.00949 µM): 93.6%
viability, T/C (second compound 0.00316 µM, first compound 0.03 µM): 99.3%
viability, T/C (second compound 0.00316 µM, first compound 0.0949 µM): 91.1%
viability, T/C (second compound 0.00316 µM, first compound 0.3 µM): 83.3%
viability, T/C (second compound 0.00316 µM, first compound 0.949 µM): 72.8%
viability, T/C (second compound 0.00316 µM, first compound 3 µM): 41.9%
viability, T/C (second compound 0.01 µM, first compound 0.00949 µM): 99.3%
viability, T/C (second compound 0.01 µM, first compound 0.03 µM): 95%
viability, T/C (second compound 0.01 µM, first compound 0.0949 µM): 85.4%
viability, T/C (second compound 0.01 µM, first compound 0.3 µM): 86.5%
viability, T/C (second compound 0.01 µM, first compound 0.949 µM): 54.5%
viability, T/C (second compound 0.01 µM, first compound 3 µM): 38.1%
viability, T/C (second compound 0.0316 µM, first compound 0.00949 µM): 99.3%
viability, T/C (second compound 0.0316 µM, first compound 0.03 µM): 94.8%
viability, T/C (second compound 0.0316 µM, first compound 0.0949 µM): 73.7%
viability, T/C (second compound 0.0316 µM, first compound 0.3 µM): 76.3%
viability, T/C (second compound 0.0316 µM, first compound 0.949 µM): 42.5%
viability, T/C (second compound 0.0316 µM, first compound 3 µM): 24.7%
viability, T/C (second compound 0.1 µM, first compound 0.00949 µM): 94%
viability, T/C (second compound 0.1 µM, first compound 0.03 µM): 86.7%
viability, T/C (second compound 0.1 µM, first compound 0.0949 µM): 76.1%
viability, T/C (second compound 0.1 µM, first compound 0.3 µM): 58.6%
viability, T/C (second compound 0.1 µM, first compound 0.949 µM): 30.9%
viability, T/C (second compound 0.1 µM, first compound 3 µM): 13.2%
viability, T/C (second compound 0.316 µM, first compound 0.00949 µM): 37.6%
viability, T/C (second compound 0.316 µM, first compound 0.03 µM): 47.4%
viability, T/C (second compound 0.316 µM, first compound 0.0949 µM): 36.9%
viability, T/C (second compound 0.316 µM, first compound 0.3 µM): 24.9%
viability, T/C (second compound 0.316 µM, first compound 0.949 µM): 11.7%
viability, T/C (second compound 0.316 µM, first compound 3 µM): 1.63%
viability, T/C (second compound 1 µM, first compound 0.00949 µM): 22.2%
viability, T/C (second compound 1 µM, first compound 0.03 µM): 12.8%
viability, T/C (second compound 1 µM, first compound 0.0949 µM): 6.6%
viability, T/C (second compound 1 µM, first compound 0.3 µM): 2.1%
viability, T/C (second compound 1 µM, first compound 0.949 µM): 0.32%
viability, T/C (second compound 1 µM, first compound 3 µM): 0.32%

Cn1ncnc1[C@H]1c2n[nH]c(=O)c3cc(F)cc(c23)N[C@@H]1c1ccc(F)cc1 + CC(Nc1ncnc2nc[nH]c12)c1cc2cccc(Cl)c2c(=O)n1-c1ccccc1
IC50 (second compound 0.0316 µM): > 100 nM
IC50 (second compound 0.1 µM): > 100 nM
IC50 (second compound 0.316 µM): > 100 nM
IC50 (second compound 1 µM): > 100 nM
IC50 (second compound 3.16 µM): > 100 nM
IC50 (second compound 10 µM): > 100 nM
viability, T/C (second compound 0.0316 µM, first compound 0.000316 µM): 104%
viability, T/C (second compound 0.0316 µM, first compound 0.001 µM): 104%
viability, T/C (second compound 0.0316 µM, first compound 0.00316 µM): 102%
viability, T/C (second compound 0.0316 µM, first compound 0.01 µM): 96.8%
viability, T/C (second compound 0.0316 µM, first compound 0.0316 µM): 105%
viability, T/C (second compound 0.0316 µM, first compound 0.1 µM): 96.8%
viability, T/C (second compound 0.1 µM, first compound 0.000316 µM): 87.6%
viability, T/C (second compound 0.1 µM, first compound 0.001 µM): 97.8%
viability, T/C (second compound 0.1 µM, first compound 0.00316 µM): 97%
viability, T/C (second compound 0.1 µM, first compound 0.01 µM): 92.9%
viability, T/C (second compound 0.1 µM, first compound 0.0316 µM): 101%
viability, T/C (second compound 0.1 µM, first compound 0.1 µM): 93.5%
viability, T/C (second compound 0.316 µM, first compound 0.000316 µM): 98.5%
viability, T/C (second compound 0.316 µM, first compound 0.001 µM): 95.6%
viability, T/C (second compound 0.316 µM, first compound 0.00316 µM): 106%
viability, T/C (second compound 0.316 µM, first compound 0.01 µM): 96.9%
viability, T/C (second compound 0.316 µM, first compound 0.0316 µM): 96.9%
viability, T/C (second compound 0.316 µM, first compound 0.1 µM): 101%
viability, T/C (second compound 1 µM, first compound 0.000316 µM): 101%
viability, T/C (second compound 1 µM, first compound 0.001 µM): 109%
viability, T/C (second compound 1 µM, first compound 0.00316 µM): 99.7%
viability, T/C (second compound 1 µM, first compound 0.01 µM): 105%
viability, T/C (second compound 1 µM, first compound 0.0316 µM): 100%
viability, T/C (second compound 1 µM, first compound 0.1 µM): 91.5%
viability, T/C (second compound 3.16 µM, first compound 0.000316 µM): 91.5%
viability, T/C (second compound 3.16 µM, first compound 0.001 µM): 108%
viability, T/C (second compound 3.16 µM, first compound 0.00316 µM): 106%
viability, T/C (second compound 3.16 µM, first compound 0.01 µM): 90%
viability, T/C (second compound 3.16 µM, first compound 0.0316 µM): 94.9%
viability, T/C (second compound 3.16 µM, first compound 0.1 µM): 100%
viability, T/C (second compound 10 µM, first compound 0.000316 µM): 111%
viability, T/C (second compound 10 µM, first compound 0.001 µM): 106%
viability, T/C (second compound 10 µM, first compound 0.00316 µM): 102%
viability, T/C (second compound 10 µM, first compound 0.01 µM): 96.7%
viability, T/C (second compound 10 µM, first compound 0.0316 µM): 100%
viability, T/C (second compound 10 µM, first compound 0.1 µM): 95%
